The values that follow come from patent publication US5053070A, “Pyrimidine derivatives, preparation processes thereof, herbicide containing the same, and herbicidal compositions containing the same along with other active ingredient” (Mitsui Toatsu Chemicals, Incorporated, priority 1988, dated 1991).

In one data set the test system is cotton. Briefly: Upland soil application test (Test 2), crop injury. Type of data set: in vivo. The settings on record: 30 g ai/a, soil spray before emergence, 30 days later. Put shortly: (§1)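 Steps: fill pots with fertilized upland field soil containing uniformly mixed weed seed; sow crops and cover with 2-3 cm soil; after one day, spray the diluted wettable powder evenly over the soil at 10 l per are; assess at 30 days against untreated controls by dry weight.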

For another data set, the system named is peanut. Briefly: Upland soil application test (Test 2), crop injury. The following applies: 30 g ai/a, soil spray before emergence, 30 days later. The class given is in vivo. In outline: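 Soil-surface application of water-diluted wettable powder at 10 l per are, made one day after seeding and ahead of weed emergence. Plants stayed in the greenhouse for 30 days; injury was rated by air-dried weight versus untreated pots.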

In a further data set the test system is soybean. Briefly: Upland soil application test (Test 2), crop injury. The class given is in vivo. The settings on record: 30 g ai/a, soil spray before emergence, 30 days later. In outline: as §1
A further data set concerns common lambsquarters. Briefly: Upland foliar application test (Test 3). The class given is in vivo. The settings on record: 30 g ai/a, foliar spray at 2-3 leaves, 30th day. In outline:
(§2)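 Steps: sow in upland soil, greenhouse; grow to 2-3 leaf stage; spray leaves with water-diluted emulsion at 5 l per are using a ULV sprayer; assess effects on day 30.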

Data set [1] concerns barnyardgrass. Briefly: Upland foliar application test (Test 3). The class given is in vivo. The settings on record: 30 g ai/a, foliar spray at 2-3 leaves, 30th day. In outline: as §2
A further data set concerns johnsongrass. Kind of data set: Upland foliar application test (Test 3). The following applies: 30 g ai/a, foliar spray at 2-3 leaves, 30th day. Type of data set: in vivo. In outline:
as §2

A further data set has as its system foxtail meadow. Briefly: Upland foliar application test (Test 3). The following applies: 30 g ai/a, foliar spray at 2-3 leaves, 30th day. Type of data set: in vivo. In outline: as §2
The next data set concerns green foxtail. Kind of data set: Upland foliar application test (Test 3). Type of data set: in vivo. The following applies: 30 g ai/a, foliar spray at 2-3 leaves, 30th day. Put shortly:
as §2

A further data set concerns large crabgrass. Kind of data set: Upland foliar application test (Test 3). The class given is in vivo. The settings on record: 30 g ai/a, foliar spray at 2-3 leaves, 30th day. Put shortly:
as §2

The subject of a further data set is redroot pigweed. Briefly: Upland foliar application test (Test 3). The settings on record: 30 g ai/a, foliar spray at 2-3 leaves, 30th day. Type of data set: in vivo. Put shortly: as §2
For data set [2], the system named is barnyardgrass. Briefly: Treatment of soil under submerged condition, pre-emergence (Test 4). Type of data set: in vivo. The settings on record: 30 g ai/a granule, 30 days later. Put shortly: (§3)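 Under submerged conditions, pots carrying weed propagules and transplanted young rice (2–3 leaves) were given a granulated test composition one day after planting, ahead of weed emergence. Plants grew in a greenhouse, with weed emergence and crop injury read 30 days after treatment.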

The subject of a further data set is Sagittaria pygmaea. Described as above. Type of data set: in vivo. The settings on record: 30 g ai/a granule, 30 days later. In outline:
as §3

In a further data set the test system is bulrush. The description is as above. The class given is in vivo. The settings on record: 30 g ai/a granule, 30 days later. Put shortly: as §3
In data set [3] the test system is ALS (acetolactate syntase). Briefly: ALS enzyme assay (Test 1). The class given is biochemical, barnyardgrass. The settings on record: 1,000 ppm (0.5 mg/0.5 ml). Put shortly: (§4)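 Partially purified ALS from dark-grown pea and barnyardgrass seedlings incubated 1 h at 30° C with pyruvate, TPP, MgCl2 and FAD. Compounds tested at 1,000 ppm (0.5 mg/0.5 ml). Acetoin formed detected colorimetrically at 525 nm via creatine/α-naphthol, relative to blank and acid-stopped controls.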

The subject of the next data set is narrowleaf waterplantain. Briefly: Petri dish test (Test 6). Type of data set: in vivo. The settings on record: 336 h; seeds on filter paper, 25° C., 14 days; read-out: I80 (ppm). Put shortly: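 Narrowleaf waterplantain seeds placed on filter paper pre-treated with compound in acetone (solvent air-dried) in 9 cm Petri dishes with 10 ml water, grown at 25° C in light. Growth was scored after fourteen days as degree of damage against an untreated group.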

In data set [4] the test system is ALS (acetolactate syntase). Kind of data set: ALS enzyme assay (Test 1). The class given is biochemical, pea. The settings on record: 1,000 ppm (0.5 mg/0.5 ml). In outline: as §4

Molecules are shown by their SMILES. Converted amounts (≈) assume the structure as drawn.

For the molecule `COc1cc(OC)nc(Oc2ccccc2C=NOCC=C(C)Cl)n1` [compound 12], the “Injury Cotton” value in the data set with cotton is on record as 0 (91-100 (No damages)). The “Injury Peanut” value in the data set with peanut is given as 0 (91-100 (No damages)). In addition, the “Injury Soybean” value in the data set with soybean is 0 (91-100 (No damages)). Moreover, in the data set on common lambsquarters, the “Herbicidal effects Common lambsquarters” value is recorded as 3 (11-40 (Medium damages)). The “Herbicidal effects Barnyardgrass” value in the data set on barnyardgrass [1] and in the data set on barnyardgrass [2] was 4 (6-10 (Severe damages)) each time. Besides, the “Herbicidal effects Johnsongrass” value in the data set on johnsongrass was 5 (0-5 (Death)). The “Herbicidal effects Foxtail meadow” value in the data set with foxtail meadow is given as 4 (6-10 (Severe damages)). In addition, in the data set with green foxtail, the “Herbicidal effects Green foxtail” value is recorded as 4 (6-10 (Severe damages)). Besides, the “Herbicidal effects Large crabgrass” value in the data set with large crabgrass is on record as 4 (6-10 (Severe damages)). In the data set with redroot pigweed, the “Herbicidal effects Redroot pigweed” value was 3 (11-40 (Medium damages)). The “Herbicidal effects Sagittaria Pygmaea” value with Sagittaria pygmaea is given as 4 (6-10 (Severe damages)). Further, the “Herbicidal effects Bulrush” value in the data set with bulrush is listed as 4 (6-10 (Severe damages)). In addition, the “Inhibitory activity (%) Barnyardgrass” value in data set [3] was found to be 39%. In the data set with narrowleaf waterplantain, the IC80 is 100 µg/mL (≈ 275 µM). For the same molecule, the “Inhibitory activity (%) Pea” value in data set [4] amounted to 0%.

Regarding `COc1cc(OC)nc(Oc2ccccc2C=NOCC=Cc2cccc(Cl)c2Cl)n1` [compound 41], the “Injury Cotton” value with cotton is reported as 0 (91-100 (No damages)). The “Injury Peanut” value with peanut is recorded as 0 (91-100 (No damages)). For the same molecule, the “Injury Soybean” value in the data set on soybean is 0 (91-100 (No damages)). The “Herbicidal effects Common lambsquarters” value in the data set with common lambsquarters was 4 (6-10 (Severe damages)). The “Herbicidal effects Barnyardgrass” value in the data set with barnyardgrass [1] and in the data set with barnyardgrass [2] was 5 (0-5 (Death)) each time. For the same molecule, the “Herbicidal effects Johnsongrass” value with johnsongrass was 5 (0-5 (Death)). For the same molecule, the “Herbicidal effects Foxtail meadow” value in the data set with foxtail meadow is 4 (6-10 (Severe damages)). In the data set with green foxtail, the “Herbicidal effects Green foxtail” value is on record as 4 (6-10 (Severe damages)). The “Herbicidal effects Large crabgrass” value in the data set on large crabgrass is on record as 5 (0-5 (Death)). In addition, the “Herbicidal effects Redroot pigweed” value in the data set on redroot pigweed is listed as 5 (0-5 (Death)). Besides, in the data set with Sagittaria pygmaea, the “Herbicidal effects Sagittaria Pygmaea” value is on record as 5 (0-5 (Death)). In addition, in the data set with bulrush, the “Herbicidal effects Bulrush” value is given as 4 (6-10 (Severe damages)). Besides, the “Inhibitory activity (%) Barnyardgrass” value in [3] came to 89%. The IC80 in the data set with narrowleaf waterplantain stood at 2 µg/mL (≈ 4.34 µM). The “Inhibitory activity (%) Pea” value in data set [4] turned out to be 0%.

Regarding `COc1cc(OC)nc(Oc2ccccc2C=NOCC=C(C)C)n1` [Compound No. 7], in the data set on cotton, the “Injury Cotton” value is given as 0 (91-100 (No damages)). Also, the “Injury Peanut” value with peanut is reported as 0 (91-100 (No damages)). Further, in the data set on soybean, the “Injury Soybean” value is reported as 0 (91-100 (No damages)). For the same molecule, the “Herbicidal effects Common lambsquarters” value in the data set on common lambsquarters was 4 (6-10 (Severe damages)). The “Herbicidal effects Barnyardgrass” value in the data set with barnyardgrass [1] and in the data set with barnyardgrass [2] was 5 (0-5 (Death)) in each case. The “Herbicidal effects Johnsongrass” value in the data set with johnsongrass is given as 5 (0-5 (Death)). Besides, the “Herbicidal effects Foxtail meadow” value in the data set on foxtail meadow is recorded as 5 (0-5 (Death)). Besides, in the data set on green foxtail, the “Herbicidal effects Green foxtail” value is 5 (0-5 (Death)). Besides, the “Herbicidal effects Large crabgrass” value in the data set with large crabgrass is listed as 5 (0-5 (Death)). For the same molecule, in the data set on redroot pigweed, the “Herbicidal effects Redroot pigweed” value is given as 5 (0-5 (Death)). In addition, in the data set with Sagittaria pygmaea, the “Herbicidal effects Sagittaria Pygmaea” value is 5 (0-5 (Death)). The “Herbicidal effects Bulrush” value in the data set on bulrush is 4 (6-10 (Severe damages)). In data set [3], the “Inhibitory activity (%) Barnyardgrass” value was found to be 84%. For the same molecule, in the data set on narrowleaf waterplantain, the IC80 stood at 17 µg/mL (≈ 49.5 µM). For the same molecule, the “Inhibitory activity (%) Pea” value in data set [4] came to 0%.

Regarding `C=CC(C)ON=Cc1ccccc1Oc1nc(OC)cc(OC)n1` (stereo not drawn) [Compound No. 2], the “Injury Cotton” value in the data set on cotton is reported as 0 (91-100 (No damages)). Further, in the data set on peanut, the “Injury Peanut” value is listed as 0 (91-100 (No damages)). For the same molecule, in the data set with soybean, the “Injury Soybean” value is given as 0 (91-100 (No damages)). The “Herbicidal effects Common lambsquarters” value in the data set with common lambsquarters is 4 (6-10 (Severe damages)). The “Herbicidal effects Barnyardgrass” value with barnyardgrass [1] and in the data set with barnyardgrass [2] was 5 (0-5 (Death)) each time. The “Herbicidal effects Johnsongrass” value in the data set with johnsongrass is 5 (0-5 (Death)). The “Herbicidal effects Foxtail meadow” value in the data set on foxtail meadow is given as 5 (0-5 (Death)). The “Herbicidal effects Green foxtail” value in the data set on green foxtail is reported as 5 (0-5 (Death)). Besides, the “Herbicidal effects Large crabgrass” value in the data set with large crabgrass is listed as 5 (0-5 (Death)). Also, the “Herbicidal effects Redroot pigweed” value in the data set on redroot pigweed was 4 (6-10 (Severe damages)). Further, the “Herbicidal effects Sagittaria Pygmaea” value in the data set on Sagittaria pygmaea is given as 4 (6-10 (Severe damages)). Moreover, the “Herbicidal effects Bulrush” value with bulrush is given as 4 (6-10 (Severe damages)). The “Inhibitory activity (%) Barnyardgrass” value in [3] is 21%. Moreover, the IC80 with narrowleaf waterplantain is 100 µg/mL (≈ 304 µM). Further, the “Inhibitory activity (%) Pea” value in [4] is given as 0%.

For `COc1cc(OC)nc(Oc2ccccc2C=O)n1` [B, reference compound], in the data set with cotton, the “Injury Cotton” value was 5 (0-5 (Death)). Further, the “Injury Peanut” value in the data set on peanut was 5 (0-5 (Death)). Also, the “Injury Soybean” value in the data set with soybean is on record as 5 (0-5 (Death)). Further, the “Herbicidal effects Common lambsquarters” value in the data set with common lambsquarters is 3 (11-40 (Medium damages)). Moreover, the results for the “Herbicidal effects Barnyardgrass” value in the data set on barnyardgrass [1] and with barnyardgrass [2] were 4 (6-10 (Severe damages)) and 3 (11-40 (Medium damages)), respectively. Besides, in the data set on johnsongrass, the “Herbicidal effects Johnsongrass” value is recorded as 4 (6-10 (Severe damages)). Besides, the “Herbicidal effects Foxtail meadow” value in the data set on foxtail meadow was 4 (6-10 (Severe damages)). In the data set with green foxtail, the “Herbicidal effects Green foxtail” value is recorded as 4 (6-10 (Severe damages)). Besides, the “Herbicidal effects Large crabgrass” value in the data set with large crabgrass was 4 (6-10 (Severe damages)). In addition, the “Herbicidal effects Redroot pigweed” value in the data set with redroot pigweed is 3 (11-40 (Medium damages)). For the same molecule, in the data set on Sagittaria pygmaea, the “Herbicidal effects Sagittaria Pygmaea” value is on record as 5 (0-5 (Death)). Further, in the data set on bulrush, the “Herbicidal effects Bulrush” value is 3 (11-40 (Medium damages)). Further, the “Inhibitory activity (%) Barnyardgrass” value in data set [3] is 98%. Moreover, in the data set with narrowleaf waterplantain, the IC80 came out at 1 µg/mL (≈ 3.84 µM). Further, in data set [4], the “Inhibitory activity (%) Pea” value is recorded as 92%.

Consider `COc1cc(OC)nc(Oc2ccccc2C=NOCC=Cc2ccc(Cl)cc2Cl)n1` [compound 30], for which the “Injury Cotton” value in the data set with cotton is on record as 0 (91-100 (No damages)). Moreover, the “Injury Peanut” value with peanut is 0 (91-100 (No damages)). In the data set on soybean, the “Injury Soybean” value is on record as 0 (91-100 (No damages)). Further, in the data set with common lambsquarters, the “Herbicidal effects Common lambsquarters” value is 4 (6-10 (Severe damages)). For the same molecule, the “Herbicidal effects Barnyardgrass” value in the data set on barnyardgrass [1] and in the data set with barnyardgrass [2] was 5 (0-5 (Death)) throughout. Also, in the data set with johnsongrass, the “Herbicidal effects Johnsongrass” value is 5 (0-5 (Death)). Also, the “Herbicidal effects Foxtail meadow” value with foxtail meadow was 5 (0-5 (Death)). The “Herbicidal effects Green foxtail” value in the data set on green foxtail was 5 (0-5 (Death)). For the same molecule, the “Herbicidal effects Large crabgrass” value in the data set with large crabgrass is listed as 5 (0-5 (Death)). For the same molecule, in the data set with redroot pigweed, the “Herbicidal effects Redroot pigweed” value is 5 (0-5 (Death)). In addition, the “Herbicidal effects Sagittaria Pygmaea” value in the data set on Sagittaria pygmaea is given as 5 (0-5 (Death)). The “Herbicidal effects Bulrush” value in the data set with bulrush was 4 (6-10 (Severe damages)). Also, the “Inhibitory activity (%) Barnyardgrass” value in data set [3] was 97%. The IC80 in the data set on narrowleaf waterplantain stood at 2 µg/mL (≈ 4.34 µM). Also, in data set [4], the “Inhibitory activity (%) Pea” value is 6%.
